Assay results taken from publication PMC5506375 (Journal of medicinal chemistry, 2017).

Key:
[1] = molecular target: T1, C jejuni PglD (Campylobacter jejuni subsp. jejuni serotype O:2, UniProt Q0P9D1); test: dynamic light scattering of PglD/inhibitor complex; conditions: apo PglD 31% PDI
[2] = system: S. typhimurium; conditions: mouse infection model; cited from earlier work
[3] = system: F. tularensis; conditions: both pre- and post-infection; cited from earlier work
[4] = at therapeutic doses; cited from earlier work
[5] = system: pathogen growth; conditions: in vitro; cited from earlier work
[6] = molecular target: C. jejuni NCTC 11168 PglD acetyltransferase (Campylobacter jejuni subsp. jejuni serotype O:2, UniProt Q0P9D1); test: continuous C. jejuni PglD inhibition assay; assay type: biochemical; conditions: for Km: PglD substrates
C. jejuni NCTC 11168 PglD acetyltransferase, sequence (Q0P9D1 whole entry): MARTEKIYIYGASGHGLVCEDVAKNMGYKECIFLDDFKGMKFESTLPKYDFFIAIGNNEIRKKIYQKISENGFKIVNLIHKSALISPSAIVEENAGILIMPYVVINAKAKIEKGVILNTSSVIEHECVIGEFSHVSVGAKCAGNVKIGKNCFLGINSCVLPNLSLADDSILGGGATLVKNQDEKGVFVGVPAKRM

[7] = solubility properties; assay type: physicochemical
[8] = long-term stability in solution; assay type: physicochemical
[9] = molecular target: T1, C jejuni PglD; test: PglD inhibition assay with varying substrate concentrations; assay type: biochemical

T1 sequence (Q0P9D1 whole entry): as above

SMILES: CO[C@H](CNc1nc(CCc2ccc(NC(C)=O)cc2)nc2sc(C(=O)O)c(C)c12)c1ccccc1 [Compound 55, (S)-2-(4-Acetamidophenethyl)-4-((2-methoxy-2-phenylethyl)amino)-5-methylthieno[2,3-d]pyrimidine-6-carboxylic acid]
- polydispersity index (PDI) of PglD/inhibitor complex [1]: 24 % PDI

SMILES: O=S(=O)(Nc1ccccc1)c1ccc(NC(=S)Nc2ccccc2)cc1 [Compound 56, N-phenyl-4-(3-phenylthioureido)benzenesulfonamide]
- efficacy against S. typhimurium [2]: prophylactic efficacy
- protection against F. tularensis [3]: provided protection
- toxicity [4]: not toxic
- effect on pathogen growth [5]: did not affect pathogen growth

SMILES: CNc1nc(CCc2ccccn2)nc2sc(C(=O)O)c(C)c12 [Compound 43, 5-Methyl-4-(methylamino)-2-(2-(pyridin-2-yl)ethyl)thieno[2,3-d]pyrimidine-6-carboxylic acid]
- enhancement of potency versus 17 ([6]; 43 vs 17): 4.8 fold

SMILES: CC(=O)SCCNC(=O)CCNC(=O)[C@H](O)C(C)(C)COP(=O)(O)OP(=O)(O)OC[C@H]1O[C@@H](n2cnc3c(N)ncnc32)[C@H](O)[C@@H]1OP(=O)(O)O [AcCoA, acetyl coenzyme A]
- Km [6]: 295 µM

SMILES: Cc1c(C(=O)O)sc2nc(/C=C/c3ccc4[nH]ccc4c3)[nH]c(=O)c12 [Compound 4]
- solubility properties [7]: poor solubility properties
- long-term stability in solution [8]: poor long-term stability in solution

SMILES: COc1cc(CCNc2nc(CCc3ccccc3)nc3sc(C(=O)O)c(C)c23)cc(OC)c1 [Compound 37, 4-((3,5-Dimethoxyphenethyl)amino)-5-methyl-2-phenethylthieno[2,3-d]pyrimidine-6-carboxylic acid]
- decrease in potency ([9]; 2-fold increase in AcCoA): 2 fold
- decrease in potency ([9]; 5-fold increase in AcCoA): 4 fold
- effect of higher UDP-4-amino-sugar concentrations on the inhibition ([9]; significantly higher UDP-4-amino-sugar concentrations): no measurable effect

SMILES: CC(=O)N[C@H]1[C@@H](OP(=O)(O)OP(=O)(O)OC[C@H]2O[C@@H](n3ccc(=O)[nH]c3=O)[C@H](O)[C@@H]2O)O[C@H](C)[C@@H](N)[C@@H]1O [UDP-4-amino-sugar]
- Km [6]: 274 µM
